Common to all, as to format: in vivo
Test [1] concerns haloperidol-induced catalepsy. The test can be described thus: Haloperidol-Induced Catalepsy (HIC) Model. To be noted: rats. The text has this: The Haloperidol-induced Catalepsy (HIC) model detects antipsychotic activity and the action of NR2B selective antagonists (Steece-Collier et al. Exp. Neurol. 163: 239, 2000) and was based on methods described by Chermat and Simon (J. Pharmacol., 6, 493-496, 1975). The capacity to induce catalepsy serves as an index of the liability of a test substance to induce extrapyramidal side-effects, in particular Parkinsonism. Antagonism of antipsychotic-induced catalepsy can thus serve to detect anti-Parkinson potential.
Rats were injected with haloperidol (1 mg/kg i.p.) and were examined for catalepsy at 30 minute intervals up to 360 minutes. Presence (+) or absence (−) of catalepsy was assessed by three procedures: 1) imposed crossing of the ipsilateral fore- and hind-limbs; 2) placing the animal in the Buddha position; 3) the tilting board, an automatic device that, 5 seconds after positioning the rat, displaces the rat from a horizontal to vertical position and back while it clings to a wire grid with its front paws. Akinesia and catalepsy were assessed depending on whether or not the animal moves before (akinesia) or during operation of the board (catalepsy).
The 4 scores were cumulated over time to give a global catalepsy score per animal. Six rats were studied per group. The test was performed blind (test substances versus vehicle). Test substances were evaluated at 1 or more doses, administered typically using 0.5% dimethylsulfoxide, 4% hydroxypropyl-b-cyclodextrin water as a vehicle p.o. 15 minutes before haloperidol (i.e. 45 minutes before the first measurement), and compared with a vehicle control group.
Amphetamine (8 mg/kg p.o.), administered 60 minutes before the test (i.e. 90 minutes before the first measurement), was used as reference substance. Data with the test substances were analyzed by comparing treated groups with vehicle control using Kruskal-Wallis Test followed by Mann-Whitney U tests at each time and for cumulated score. Data with the reference substance were analyzed using Mann-Whitney U tests.

For test [2], the system named is formalin-induced nociceptive behavior. The test can be described thus: Rat Formalin Model. To be noted: rats, 10, 30 and 60 mpk i.p., mesylate salt. The procedure: The rat formalin model is a tonic model of continuous pain resulting from formalin-induced spontaneous nociceptive behaviors. Intra-paw injection of formalin is a commonly used model to measure spontaneous nociceptive behaviors in rodents (Dubuisson, D. and Dennis, S. G. Pain 4:161, 1977). Subcutaneous plantar injection of formalin causes a bi-phasic nocifensive behavioral response in rodents. The early phase (phase-1) lasts for about 5-10 min following which an interphase occurs without any discernible nociceptive reactions after which the late phase (phase-II) nociceptive reaction ensues continuing from about 20-60 min following formalin injection. Formalin model is a model of tonic, persistent pain, and is widely used for rapid screening of novel analgesic compounds. […] In the present example, effects of test item were assessed in 0-5 minutes from the early phase (phase-I) and 20-35 minutes from the late phase (phase-II) of formalin-induced nociceptive behavior. […]
For all groups, animals were acclimated to the observation chamber for 15 minutes immediately prior to formalin injection. All animals received an intraplantar subcutaneous injection of 50 μL of 5% formalin into the left hind paw and then placed immediately into an observation chamber and formalin-evoked spontaneous nociceptive behaviors in the rats were continuously recorded for 0-60 min using a commercial camcorder. […]

For test [3], the system named is KCl-induced cortical spreading depression. Kind of test: Cortical Spreading Depression (CSD), aura phase of migraine model. To be noted: rats. The method, then:
The cortical spreading depression model is utilized to investigate whether treatment with compounds of the present invention affect electrophysiological and hemodynamic events in a rat model of migraine.
Rats were anesthetized with 5% isoflurane (in 70% N2O and 30% O2; flow 300 ml/min) and placed in a stereotactic frame. […] The rectal temperature was maintained at 37.0±1.0° C. with a homeothermic blanket system. The skin was opened by a medial incision and retracted laterally. Three burr holes were drilled under saline cooling over the right hemisphere at the following coordinates (mm from bregma): (1) posterior 4.5, lateral, 2.0 (occipital cortex): KCl application site; (2) posterior 0.5, lateral 2.0 (parietal cortex): LDF recording site; (3) anterior 2, lateral 2 (frontal cortex): DC potential recording site. A laser-Doppler flow probe (Oxyflow, Oxford Optronics, UK) to monitor CBF and an invasive Ag/AgCl electrode for measuring direct current (DC) potential shifts were placed in the parietal and frontal cortex burr holes on the intact dura and in the cortex, respectively. The laser-Doppler flow probe was positioned in an area free of large pial and dural vessels to minimize a large-vessel contribution to the signal. For the DC-potential measurement, a reference electrode was fixed in the neck. Dura overlying the occipital cortex was gently removed and care was taken to avoid bleeding. After surgical preparation, the cortex was allowed to recover for 15 minutes under saline irrigation. A cotton ball (2 mm diameter) soaked with 1M KCl was placed on the pial surface and kept moist by placing 5 μl of KCl solution every 15 minutes. Test compound or vehicle was administered ten (10) minutes prior to CSD initiation. […] The number of KCl-induced CSDs was counted for 2 hours. The CBF and DC-potentials were monitored continuously starting from 5 minutes before KCl exposure.
Test compound E1-1.2 was administered as a mesylate salt (mpk based on molecular weight of the mesylate salt).
The data was collected in Windaq acquisition software (Dataq Instruments, USA) at 20 kHz. The raw data was analyzed in Clampfit program (Axon Instruments, USA). The signals were low pass filtered (cut off range 5-10000 Hz) that CSD episodes in DC and CBF could be confirmed. The following parameters were analyzed: i) the number, duration and amplitude of DC-potentials, and ii) the number and amplitude of CBF events.
Doses were given as milligram per kilogram (mpk). […] Bars represent mean±Standard Error of Mean (SEM), and differences were considered to be statistically significant at the P<0.05 level (n=8, * different from vehicle group). Statistical analysis was performed using StatsDirect statistical software. Differences between groups were analyzed by using 1-way ANOVA and Dunnett's post hoc test.

Where [4] appears, read: E1-1.2 at various doses, MK-801 1.25 mg/kg.

Consider `Cc1ccc(COC(=O)N2CC[C@H](CNc3nccn4cnnc34)C(F)(F)C2)cc1` [Compound E1-1.2, (+)-R-4-methylbenzyl 4-(([1,2,4]triazolo[4,3-a]pyrazin-8-ylamino)methyl)-3,3-difluoropiperidine-1-carboxylate], for which the “cumulated score of catalepsy over 360 mins” value in test [1] (1 mg/kg p.o.) was 17.0. For the same compound, in test [1] (3 mg/kg p.o.), the “cumulated score of catalepsy over 360 mins” value was 15.8. For the same compound, in test [1] (p.o., dose not printed in the sentence (other doses 1 and 3 mg/kg)), the “cumulated score of catalepsy over 360 mins” value amounted to 2.0. For the same compound, in test [2], the “cumulative time spent on nociceptive behavior in phase I (0-5 mins)” value is “decreased” and the “cumulative time spent on nociceptive behavior in phase II (20-35 mins)” value is “decreased”. Also, in test [3], the “magnitude of CBF vs vehicle” value is “unchanged”. In test [3] (3 mpk, 10 mpk and 30 mpk, mesylate salt), the “number of DC potentials vs vehicle” value is “significantly decreased”. For the same compound, the “number of CBF events vs vehicle” value in test [3] (E1-1.2 at 10 mg/kg, MK-801 at 1.25 mg/kg) is “decreased”. Further, in test [3] (setting [4]), the “amplitude of DC potentials vs vehicle” value is “not statistically different” and the “duration of DC potentials vs vehicle” value is on record as “not statistically different”.

For the origin of these results see patent US10294230B2, “3,3-difluoropiperidine carbamate heterocyclic compounds as NR2B NMDA receptor antagonists” (Rugen Holdings (Cayman) Limited, priority 2015, dated 2019).
